Measured values as given in ChEMBL document CHEMBL3763068, “Recent developments of 2-aminothiazoles in medicinal chemistry” (Eur J Med Chem, 2016).

How the values were obtained:
[1] = Selectivity index, ratio of CC50 for human PBMC to IC50 for HIV1 3B; type: functional
[2] = test system: Human immunodeficiency virus 1; assay: Antiviral activity against HIV1 3B coinfected with HTLV in human PBMC assessed as inhibition of viral p24 antigen production after 7 days by ELISA; type: functional, organism-based; conditions: Human immunodeficiency virus 1, 3B, 168 h
[3] = Antiprion activity against […] RML PrPSc infected in mouse N2A cells after 6 days by ELISA; type: cell-based; conditions: 144 h
[4] = Drug uptake in po dosed mouse brain measured after 3 days; type: ADME, organism-based; conditions: read-out: Drug uptake
[5] = target: High affinity nerve growth factor receptor (Homo sapiens, UniProt P04629); assay: Inhibition of human recombinant N-terminal His6-tagged TRKA cytoplasmic domain (residues 440)
Sequence of High affinity nerve growth factor receptor (P04629 whole entry, the tested form may be a part): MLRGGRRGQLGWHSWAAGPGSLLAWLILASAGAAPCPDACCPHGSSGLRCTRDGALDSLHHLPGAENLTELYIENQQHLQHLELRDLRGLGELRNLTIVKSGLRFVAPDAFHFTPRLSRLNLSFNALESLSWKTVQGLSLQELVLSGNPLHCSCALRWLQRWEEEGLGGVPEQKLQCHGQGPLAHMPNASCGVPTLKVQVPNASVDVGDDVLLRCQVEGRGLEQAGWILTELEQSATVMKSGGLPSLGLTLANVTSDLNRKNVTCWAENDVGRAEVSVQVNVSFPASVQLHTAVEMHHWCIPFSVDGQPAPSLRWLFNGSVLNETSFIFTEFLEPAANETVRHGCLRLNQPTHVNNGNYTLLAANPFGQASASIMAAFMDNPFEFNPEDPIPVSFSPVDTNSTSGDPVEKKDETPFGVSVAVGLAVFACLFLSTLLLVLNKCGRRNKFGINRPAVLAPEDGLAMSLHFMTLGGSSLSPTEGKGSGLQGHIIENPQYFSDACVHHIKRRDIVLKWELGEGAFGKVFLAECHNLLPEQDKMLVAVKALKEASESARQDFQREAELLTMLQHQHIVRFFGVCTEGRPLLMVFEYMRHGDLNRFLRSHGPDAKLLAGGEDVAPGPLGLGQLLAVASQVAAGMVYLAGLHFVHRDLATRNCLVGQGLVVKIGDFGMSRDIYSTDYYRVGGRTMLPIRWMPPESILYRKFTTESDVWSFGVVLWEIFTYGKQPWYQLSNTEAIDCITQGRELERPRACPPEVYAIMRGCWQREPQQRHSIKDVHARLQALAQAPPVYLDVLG

[6] = Cytotoxicity against human Hep3B cells assessed as growth inhibition after 48 hrs by MTT assay; type: functional, cell-based, Hep 3B2

SMILES | Ratio CC50/IC50 [1] | IC50 [2] [nM] | also measured
S=C(NCc1ccco1)Nc1nccs1 | >100000 | < 1 | –
Cc1ccc(Nc2nc(-c3cc(-c4ccccc4)no3)cs2)nc1 | – | – | EC50 [3]: 940 nM; concentration at 72 h [4]: 25 µM
S=C(NCCOc1ccccc1)Nc1nccs1 | >100000 | < 1 | –
O=C(CCc1ccco1)Nc1nc(-c2ccccc2)cs1 | – | – | IC50 [5]: 13 nM; IC50 [6]: 40 nM
